Values of other authors, collected in patent US20170218035A1, “COMPOSITIONS AND METHODS FOR TREATMENT WITH HEMOPEXIN” (Bayer HealthCare LLC, priority 2014, published 2017).

Target: T1, Hemopexin (plasma based glycoprotein) (Homo sapiens, UniProt P02790)
T1 sequence (P02790 24-462): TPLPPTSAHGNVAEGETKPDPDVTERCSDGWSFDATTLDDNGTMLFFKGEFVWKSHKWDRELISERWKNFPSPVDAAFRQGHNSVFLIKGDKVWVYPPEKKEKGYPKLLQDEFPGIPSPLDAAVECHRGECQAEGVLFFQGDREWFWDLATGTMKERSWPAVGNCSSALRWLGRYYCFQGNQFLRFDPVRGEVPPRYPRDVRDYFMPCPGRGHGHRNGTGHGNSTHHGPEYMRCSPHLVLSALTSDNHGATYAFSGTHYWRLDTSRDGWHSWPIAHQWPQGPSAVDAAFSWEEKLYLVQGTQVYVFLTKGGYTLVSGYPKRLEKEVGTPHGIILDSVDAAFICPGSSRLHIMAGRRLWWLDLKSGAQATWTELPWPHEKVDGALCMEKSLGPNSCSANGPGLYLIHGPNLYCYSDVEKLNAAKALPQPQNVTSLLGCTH
Conditions: highest known binding affinity for heme; reported value

SMILES: C=CC1=C(C)c2cc3[nH]c(cc4nc(cc5[nH]c(cc1n2)c(C)c5CCC(=O)O)C(CCC(=O)O)=C4C)c(C)c3C=C.[Fe] [heme]
- Kd: < 1 pM
